The source made the active and inactive calls. The calls are words filed in the database; no cut-off is given here.
Columns and labels:
[1] = Drug degradation in culture medium assessed as dehydration; assay type: physicochemical
MCF7 [2] = experiment: Growth inhibition of human MCF7 cells at 10 uM after 48 hrs; assay type: functional
T47D = experiment: Antiproliferative activity against human T47D cells after 5 days by MTT assay; assay type: functional, cell-based; conditions: 120 h
MDA-MB-231 [3] = experiment: Induction of cell cycle arrest in human MDA-MB-231 cells assessed as subG0 phase cells at 5 uM after 48 hrs by propidium iodide-staining method in absence of fetal calf serum relative to control; assay type: functional
MCF7 [4] = experiment: Induction of apoptosis in human MCF7 cells after 48 hrs by Hoechst-staining method in presence of fetal calf serum; assay type: functional, cell-based
MCF7 [5] = experiment: Induction of apoptosis in human MCF7 cells assessed as apoptotic bubbling at 1 to 10 uM after 48 hrs by Hoechst-staining method in presence of fetal calf serum; assay type: functional, cell-based
MDA-MB-231 [6] = experiment: Induction of apoptosis in human MDA-MB-231 cells assessed as apoptotic bubbling at 1 to 10 uM after 48 hrs by Hoechst-staining method in presence of fetal calf serum; assay type: functional, cell-based
MCF7 [7] = experiment: Growth inhibition of human MCF7 cells after 48 hrs in absence of fetal calf serum; assay type: functional, cell-based; conditions: MCF7, 48 h
MDA-MB-231 [8] = experiment: Induction of cell cycle arrest in human MDA-MB-231 cells assessed as S phase cells at 5 uM after 48 hrs by flow cytometric analysis (reference value: 40.4%); assay type: functional
MCF7 [9] = experiment: Growth inhibition of human MCF7 cells after 48 hrs in presence of fetal calf serum; assay type: functional, cell-based; conditions: MCF7, 48 h
MDA-MB-231 [10] = experiment: Induction of apoptosis in human MDA-MB-231 cells after 48 hrs by Hoechst-staining method in absence of fetal calf serum; assay type: functional, cell-based
MCF7 [11] = experiment: Induction of apoptosis in human MCF7 cells assessed as apoptotic bubbling at 1 to 10 uM after 48 hrs by Hoechst-staining method in absence of fetal calf serum; assay type: functional, cell-based
MCF7 [12] = experiment: Induction of apoptosis in human MCF7 cells at 10 uM after 48 hrs by Hoechst-staining method in presence of fetal calf serum; assay type: functional
MCF7 [13] = experiment: Induction of cell cycle arrest in human MCF7 cells assessed as S/G2 phase cells at 5 uM after 48 hrs by flow cytometric analysis (reference value: 17.8%); assay type: functional
MCF7 [14] = experiment: Induction of cell cycle arrest in human MCF7 cells assessed as S phase cells at 5 uM after 48 hrs by flow cytometric analysis (reference value: 46.6%); assay type: functional
MDA-MB-231 [15] = experiment: Induction of cell cycle arrest in human MDA-MB-231 cells assessed as decrease in G0/G1 phase cells at 5 uM after 48 hrs by flow cytometric analysis relative to control; assay type: functional, cell-based
MDA-MB-231 [16] = experiment: Induction of apoptosis in human MDA-MB-231 cells assessed as apoptotic bubbling at 1 to 10 uM after 48 hrs by Hoechst-staining method in absence of fetal calf serum; assay type: functional, cell-based
MDA-MB-231 [17] = experiment: Growth inhibition of human MDA-MB-231 cells after 48 hrs in presence of fetal calf serum; assay type: functional, cell-based; conditions: MDA-MB-231, 48 h
MCF7 [18] = experiment: Induction of cell cycle arrest in human MCF7 cells assessed as subG0 phase cells at 5 uM after 48 hrs by propidium iodide-staining method in absence of fetal calf serum relative to control; assay type: functional
MDA-MB-231 [19] = experiment: Induction of apoptosis in human MDA-MB-231 cells assessed as pyknosis at 1 to 10 uM after 48 hrs by Hoechst-staining method in presence of fetal calf serum; assay type: functional, cell-based
MCF7 [20] = experiment: Induction of cell cycle arrest in human MCF7 cells assessed as subG0 phase cells at 5 uM after 48 hrs by propidium iodide-staining method in presence of fetal calf serum relative to control; assay type: functional
MDA-MB-231 [21] = experiment: Induction of apoptosis in human MDA-MB-231 cells assessed as pyknosis at 1 to 10 uM after 48 hrs by Hoechst-staining method in absence of fetal calf serum; assay type: functional, cell-based
MDA-MB-231 [22] = experiment: Induction of apoptosis in human MDA-MB-231 cells after 48 hrs by Hoechst-staining method in presence of fetal calf serum; assay type: functional, cell-based
MCF7 [23] = experiment: Induction of apoptosis in human MCF7 cells after 48 hrs by Hoechst-staining method in absence of fetal calf serum; assay type: functional, cell-based
MCF7 [24] = experiment: Induction of apoptosis in human MCF7 cells assessed as pyknosis at 1 to 10 uM after 48 hrs by Hoechst-staining method in presence of fetal calf serum; assay type: functional, cell-based
MDA-MB-231 [25] = experiment: Induction of cell cycle arrest in human MDA-MB-231 cells assessed as subG0 phase cells at 5 uM after 48 hrs by propidium iodide-staining method in presence of fetal calf serum relative to control; assay type: functional
MCF7 [26] = experiment: Induction of apoptosis in human MCF7 cells assessed as pyknosis at 1 to 10 uM after 48 hrs by Hoechst-staining method in absence of fetal calf serum; assay type: functional, cell-based
MDA-MB-231 [27] = experiment: Growth inhibition of human MDA-MB-231 cells after 48 hrs in absence of fetal calf serum; assay type: functional, cell-based; conditions: MDA-MB-231, 48 h
MDA-MB-231 [28] = experiment: Induction of apoptosis in human MDA-MB-231 cells at 10 uM after 48 hrs by Hoechst-staining method in presence of fetal calf serum; assay type: functional
MCF7 [29] = experiment: Induction of cell cycle arrest in human MCF7 cells assessed as G0/G1 phase cells at 5 uM after 48 hrs by flow cytometric analysis (reference value: 35.6%); assay type: functional
MDA-MB-231 [30] = experiment: Induction of cell cycle arrest in human MDA-MB-231 cells assessed as decrease in G2/M phase cells at 5 uM after 48 hrs by flow cytometric analysis relative to control; assay type: functional, cell-based
[31] = Drug degradation in culture medium assessed as decarboxylation; assay type: physicochemical

For `COC(=O)C1C(O)c2cc(OC)c(O)c(OC)c2[C@@H](c2cc(OC)c(O)c(OC)c2)[C@@H]1C(=O)OC` (stereo partly drawn), the Stability [1] was “Unstable” and the “growth inhibition (GI)” value (MCF7 [2]) was “Active”.
Compound `O=C(O)/C=C/c1ccc(O)c(O)c1` [CAFFEIC ACID] has an IC50 (T47D) of 2 nM.
For `CCOC(=O)C1=Cc2cc(O)c(O)cc2[C@@H](c2ccc(O)cc2)[C@@H]1C(=O)O` (relative stereo), the “growth inhibition (GI)” value (MCF7 [2]) was “Active”.
In the case of `CCOC(=O)C1=Cc2cc(O)c(O)cc2[C@@H](c2ccc(O)cc2)[C@@H]1C(=O)OCC` (relative stereo), the “growth inhibition (GI)” value (MCF7 [2]) is reported as “Active”.
For `COC(=O)C1=Cc2cc(O)c(O)cc2[C@@H](c2ccc(O)c(O)c2)[C@@H]1C(=O)OC`, the Activity (MDA-MB-231 [3]) was 20%, the Activity (MCF7 [4]) was “Dose-dependent effect” and the Activity (MCF7 [5]) was “Active”. For the same compound, the Activity (MDA-MB-231 [6]) was “Active”, the IC50 (MCF7 [7]) was 1000 nM and the Activity (MDA-MB-231 [8]) was 56.1%. The IC50 (MCF7 [9]) was 1000 nM, the Activity (MDA-MB-231 [10]) was “Dose-dependent effect” and the Activity (MCF7 [11]) was “Active”. For the same compound, the Activity (MCF7 [12]) was 25%, the Activity (MCF7 [13]) was 17% and the Activity (MCF7 [14]) was 34.7%. For the same compound, the Activity (MDA-MB-231 [15]) was “Active”, the Activity (MDA-MB-231 [16]) was “Active” and the IC50 (MDA-MB-231 [17]) was 5000 nM. The Activity (MCF7 [18]) was 20%, the Activity (MDA-MB-231 [19]) was “Active” and the Activity (MCF7 [20]) was 20%. For the same compound, the Activity (MDA-MB-231 [21]) was “Active”, the Activity (MDA-MB-231 [22]) was “Dose-dependent effect” and the Activity (MCF7 [23]) was “Dose-dependent effect”. For the same compound, the Activity (MCF7 [24]) was “Active”, the inhibition of growth at 10 µM (MCF7 [2]; MCF7, 48 h, read-out: GI) was 82% and the Activity (MDA-MB-231 [25]) was 20%. For the same compound, the Activity (MCF7 [26]) was “Active”, the IC50 (MDA-MB-231 [27]) was 5000 nM and the Activity (MDA-MB-231 [28]) was 25%. The Activity (MCF7 [29]) was 29.4% and the Activity (MDA-MB-231 [30]) was “Active”.
For `O=C(O)C1=Cc2cc(O)c(O)cc2[C@@H](c2ccc(O)cc2)[C@@H]1C(=O)O` (relative stereo), the Stability [31] was “Unstable” and the “growth inhibition (GI)” value (MCF7 [2]) was “Active”.
For `COC(=O)C1=Cc2cc(OC)c(O)cc2[C@@H](c2ccc(O)c(OC)c2)[C@@H]1C(=O)OC`, the “growth inhibition (GI)” value (MCF7 [2]) was “inactive”.
With `COC(=O)C1=Cc2cc(OC)c(O)c(C)c2[C@@H](c2cc(C)c(O)c(OC)c2)[C@@H]1C(=O)OC` the “growth inhibition (GI)” value (MCF7 [2]) was “inactive”.

— ChEMBL document CHEMBL2311359, “Antiproliferative and apoptotic effects of the oxidative dimerization product of methyl caffeate on human breast cancer cells” (Bioorg Med Chem Lett, 2013)
